Test results: patent US20230212131A1, “COLLAGEN 1 TRANSLATION INHIBITORS AND METHODS OF USE THEREOF” (Anima Biotech Inc., priority 2020, published 2023)

What follows are molecules tested on collagen 1 (COL1) (assay: WI-38 collagen 1 inhibition assay). Details: Cellular EC50, WI-38 cells; values are classes of LogEC50.
Type: cell-based, human
Procedure, shortened: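 WI-38 fibroblasts serum-starved (0.25% FBS 2 h, then none 24 h), then given a collagen induction cocktail together with compound. Cells fixed, immunostained for collagen I with DAPI counterstain, and imaged at 20×; per-cell fluorescence quantified by image analysis.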

| SMILES | COL1 Efficacy (LogEC50) |
| --- | --- |
| Cc1ccc(C(=O)Nc2nc(-c3ccccc3Cl)cs2)nc1 [compound 329, N-[4-(2-chlorophenyl)thiazol-2-yl]-5-methyl-pyridine-2-carboxamide] | ++ (++: −5 to −6) |
| COc1cnc(C(=O)Nc2nc(-c3ccccc3Cl)cs2)cn1 [compound 330, N-[4-(2-chlorophenyl)thiazol-2-yl]-5-methoxy-pyrazine-2-carboxamide] | ++ (++: −5 to −6) |
| O=C(Nc1nc(-c2ccccc2Cl)cs1)c1ccc(N2CCOCC2)cn1 [compound 339, N-[4-(2-chlorophenyl)thiazol-2-yl]-5-morpholino-pyridine-2-carboxamide] | +++ (+++: <−6) |
| COc1ncc(C(=O)Nc2nc(-c3ccccc3Cl)cs2)cn1 [compound 345, N-[4-(2-chlorophenyl)thiazol-2-yl]-2-methoxy-pyrimidine-5-carboxamide] | +++ (+++: <−6) |
| O=C(Nc1nc(-c2ccccc2Cl)cs1)c1ccc(N2CCOCC2)nc1 [compound 346, N-[4-(2-chlorophenyl)thiazol-2-yl]-6-morpholino-pyridine-3-carboxamide] | +++ (+++: <−6) |
| Cc1ccc(C(=O)Nc2nc(-c3cnccc3C)cs2)cn1 [compound 348, 6-methyl-N-[4-(4-methyl-3-pyridyl)thiazol-2-yl]pyridine-3-carboxamide] | + (+: >−5) |
| COc1ncc(C(=O)Nc2nc(-c3cnccc3C)cs2)cn1 [compound 349, 2-methoxy-N-[4-(4-methyl-3-pyridyl)thiazol-2-yl]pyrimidine-5-carboxamide] | − (−: inactive) |
| Cc1ccc(C(=O)Nc2nc(-c3ccccc3N3CCC3)cs2)cn1 [compound 350, N-[4-[2-(azetidin-1-yl)phenyl]thiazol-2-yl]-6-methyl-pyridine-3-carboxamide] | − (−: inactive) |
| COc1ccccc1-c1csc(NC(=O)c2ccc(N3CCOCC3)cc2)n1 [compound 351, N-[4-(2-methoxyphenyl)thiazol-2-yl]-4-morpholino-benzamide] | +++ (+++: <−6) |
| O=C(Nc1nc(-c2cccnc2)cs1)c1ccc(N2CCOCC2)cc1 [compound 352, 4-morpholino-N-[4-(3-pyridyl)thiazol-2-yl]benzamide] | + (+: >−5) |
| COc1cc(OC)cc(-c2csc(NC(=O)c3ccc(N4CCOCC4)cc3)n2)c1 [compound 353, N-[4-(3,5-dimethoxyphenyl)thiazol-2-yl]-4-morpholino-benzamide] | +++ (+++: <−6) |
| Cn1cc(-c2csc(NC(=O)c3ccc(N4CCOCC4)cc3)n2)cn1 [compound 354, N-[4-(1-methylpyrazol-4-yl)thiazol-2-yl]-4-morpholino-benzamide] | ++ (++: −5 to −6) |
| COc1ncc(C(=O)Nc2nc(-c3cccnc3C)cs2)cn1 [compound 355, 2-methoxy-N-[4-(2-methyl-3-pyridyl)thiazol-2-yl]pyrimidine-5-carboxamide] | − (−: inactive) |
| COc1ncc(C(=O)Nc2nc(-c3cccnc3OC)cs2)cn1 [compound 356, 2-methoxy-N-[4-(2-methoxy-3-pyridyl)thiazol-2-yl]pyrimidine-5-carboxamide] | − (−: inactive) |
| COc1cccc(-c2csc(NC(=O)c3ccc(N4CCOCC4)cc3)n2)c1 [compound 357, N-[4-(3-methoxyphenyl)thiazol-2-yl]-4-morpholino-benzamide] | + (+: >−5) |
| O=C(Nc1nc(-c2ccccc2Cl)cs1)c1cnc(N2CCOCC2)nc1 [compound 358, N-[4-(2-chlorophenyl)thiazol-2-yl]-2-morpholino-pyrimidine-5-carboxamide] | − (−: inactive) |
| O=C(Nc1nc(-c2ccccc2)cs1)c1ccc(N2CCOCC2)cc1 [compound 359, 4-morpholino-N-(4-phenylthiazol-2-yl)benzamide] | + (+: >−5) |
| O=C(Nc1nc(-c2ccccc2Cl)cs1)N1CCC(N2CCOCC2)CC1 [compound 360, N-[4-(2-chlorophenyl)thiazol-2-yl]-4-morpholino-piperidine-1-carboxamide] | + (+: >−5) |
| N#Cc1ccccc1-c1csc(NC(=O)c2ccc(N3CCOCC3)cc2)n1 [compound 361, N-[4-(2-cyanophenyl)thiazol-2-yl]-4-morpholino-benzamide] | − (−: inactive) |
| O=C(Nc1nc(-c2ccccc2Cl)cs1)C1CN(C2CCOCC2)C1 [compound 363, N-[4-(2-chlorophenyl)thiazol-2-yl]-1-tetrahydropyran-4-yl-azetidine-3-carboxamide] | ++ (++: −5 to −6) |
| CS(=O)(=O)N1CCN(c2ccc(C(=O)Nc3nc(-c4ccccc4Cl)cs3)cc2)CC1 [compound 365, N-[4-(2-chlorophenyl)thiazol-2-yl]-4-(4-methylsulfonylpiperazin-1-yl)benzamide] | +++ (+++: <−6) |
| O=C(Nc1nc(-c2ccccc2Cl)cs1)c1ccc(N2CCOCC2)nn1 [compound 366, N-[4-(2-chlorophenyl)thiazol-2-yl]-6-morpholino-pyridazine-3-carboxamide] | +++ (+++: <−6) |
| O=C(Nc1nc(-c2ccccc2Cl)cs1)c1cnc(N2CCOCC2)cn1 [compound 367, N-[4-(2-chlorophenyl)thiazol-2-yl]-5-morpholino-pyrazine-2-carboxamide] | +++ (+++: <−6) |

| SMILES | COL1 Efficacy (LogEC50) |
| --- | --- |
| Cc1ncccc1-c1csc(NC(=O)c2ccc(N3CCOCC3)cc2)n1 [compound 369, N-[4-(2-methyl-3-pyridyl)thiazol-2-yl]-4-morpholino-benzamide] | ++ (++: −5 to −6) |
| Cc1ncccc1-c1csc(NC(=O)c2ccc(N3CCOCC3)cn2)n1 [compound 371, N-[4-(2-methyl-3-pyridyl)thiazol-2-yl]-5-morpholino-pyridine-2-carboxamide] | ++ (++: −5 to −6) |
| Cc1ncccc1-c1csc(NC(=O)c2cnc(N3CCOCC3)cn2)n1 [compound 372, N-[4-(2-methyl-3-pyridyl)thiazol-2-yl]-5-morpholino-pyrazine-2-carboxamide] | + (+: >−5) |
| Cc1ncccc1-c1csc(NC(=O)c2ccc(N3CCOCC3)nn2)n1 [compound 373, N-[4-(2-methyl-3-pyridyl)thiazol-2-yl]-6-morpholino-pyridazine-3-carboxamide] | + (+: >−5) |
| Cc1ncccc1-c1csc(NC(=O)c2cnc(N3CCOCC3)nc2)n1 [compound 374, N-[4-(2-methyl-3-pyridyl)thiazol-2-yl]-2-morpholino-pyrimidine-5-carboxamide] | + (+: >−5) |
| Cc1ncccc1-c1csc(NC(=O)c2ccc(N3CCOCC3)nc2)n1 [compound 375, N-[4-(2-methyl-3-pyridyl)thiazol-2-yl]-6-morpholino-pyridine-3-carboxamide] | + (+: >−5) |
| O=C(Nc1nc(-c2ccccc2Cl)cs1)c1ccc(C2CCS(=O)(=O)CC2)cc1 [compound 382, N-(4-(2-chlorophenyl)thiazol-2-yl)-4-(1,1-dioxidotetrahydro-2H-thiopyran-4-yl)benzamide] | +++ (+++: <−6) |
| O=C(Nc1nc(-c2ccccc2Cl)cs1)c1ccc(C(=O)N2CCOCC2)cc1 [compound 384, N-(4-(2-chlorophenyl)thiazol-2-yl)-4-(morpholine-4-carbonyl)benzamide] | ++ (++: −5 to −6) |
| O=C(Nc1nc(-c2ccccc2Cl)cs1)c1ccc(C(=O)N2CCS(=O)(=O)CC2)cc1 [compound 385, N-(4-(2-chlorophenyl)thiazol-2-yl)-4-(1,1-dioxidothiomorpholine-4-carbonyl)benzamide] | ++ (++: −5 to −6) |
| CN(C)C(=O)c1ccc(C(=O)Nc2nc(-c3ccccc3Cl)cs2)cc1 [compound 389, N′-(4-(2-chlorophenyl)thiazol-2-yl)-N,N-dimethylterephthalamide] | ++ (++: −5 to −6) |
| O=C(Nc1nc(C2CCOCC2)cs1)c1ccc(N2CCOCC2)cn1 [compound 393, 5-morpholino-N-(4-(tetrahydro-2H-pyran-4-yl)thiazol-2-yl)picolinamide] | ++ (++: −5 to −6) |
| O=C(Nc1nc(-c2ccccc2Cl)cs1)c1ccc(N2CCOCC2)cc1F [compound 408] | − (−: inactive) |
| O=C(Nc1nc(-c2ccccc2Cl)cs1)C12CC(C(=O)N3CCOCC3)(C1)C2 [compound 420] | + (+: >−5) |
| O=C(Nc1nc(-c2ccccc2Cl)cs1)[C@H]1C[C@H](N2CCOCC2)C1 [compound 422, (1r,3r)-N-(4-(2-chlorophenyl)thiazol-2-yl)-3-morpholinocyclobutane-1-carboxamide] | ++ (++: −5 to −6) |
| CS(=O)(=O)N1CCN([C@H]2C[C@@H](C(=O)Nc3nc(-c4ccccc4Cl)cs3)C2)CC1 [compound 423] | − (−: inactive) |
| O=C(Nc1nc(-c2ccccc2Cl)cs1)C1CC(C(=O)N2CCOCC2)C1 (stereo not drawn) [compound 426] | − (−: inactive) |
| O=C(Nc1nc(-c2ccccc2Cl)cs1)C1CC(C(=O)N2CCOCC2)C1 (stereo not drawn) [compound 427] | − (−: inactive) |
| CS(=O)(=O)N1CCN(C(=O)[C@H]2C[C@@H](C(=O)Nc3nc(-c4ccccc4Cl)cs3)C2)CC1 [compound 429] | + (+: >−5) |
| O=C(Nc1nc(-c2ccccc2Cl)cs1)C1CCC(N2CCOCC2)CC1 (stereo not drawn) [compound 431] | − (−: inactive) |
| O=C(Nc1nc(-c2ccccc2Cl)cs1)C1CCC(N2CCOCC2)CC1 (stereo not drawn) [compound 432] | − (−: inactive) |
| COCc1cc(N2CCOCC2)ccc1C(=O)Nc1nc(-c2ccccc2Cl)cs1 [compound 436] | − (−: inactive) |
| CN1CCN(C(=O)c2ccc(C(=O)Nc3nc(-c4ccccc4Cl)cs3)nc2)CC1 [compound 437, N-(4-(2-chlorophenyl)thiazol-2-yl)-5-(4-methylpiperazine-1-carbonyl)picolinamide] | ++ (++: −5 to −6) |
